Patent US6329498A, “Polypeptide transition metal salts and method of enhancing anti-HIV activity of polypeptide” (Seikagaku Corporation, priority 1996, dated 2001)
Where a SMILES comes first, the peptide text is derived from it.

Legend:
[1] = tested on: human immunodeficiency virus (HIV); test: Anti-HIV activity: protection of HIV-infected MT-4 cells from cell death, MTT method; conditions: for SI (CC50 /ED50): rough ratio of CC50 to EC50, MT-4 cells
Experimental: To a 96-well microtiter plate, HIV-infected MT-4 cells (2.5×10^4 cells/well, Multiplicity of infection (MOI): 0.001) was added immediately after the infection along with test materials in various concentrations. […] On the other hand, in order to know the cytotoxicity of the test substances on the MT-4 cells, virus-non-infected cells were cultured with the test materials in various concentrations as described above. […] And the rough ratio of CC50 to EC50 (CC50 /EC50) is expressed as an effective ratio (SI).

MT-4 cells = test: Cytotoxicity on virus-non-infected MT-4 cells, MTT method; type: cell-based; conditions: 5 days at 37° C.
[2] = HIV-infected MT-4 cells, MOI 0.001, 5 days at 37° C., MTT method

Compound	EC50 ([1]; read-out: EC50 (concentration to suppress 50% of cell death due to HIV infection), HIV-infected MT-4 cells, MOI 0.001, 5 days at 37° C., MTT method, unit μM printed with the compound)	SI (CC50 /ED50) [1]	CC50 (50% cytotoxic concentration) (MT-4 cells; unit μM printed with the compound)	EC50 (concentration to suppress 50% of cell death due to HIV infection) [1, 2]	CC50 (50% cytotoxic concentration) (MT-4 cells)
Cc1cn([C@H]2C[C@H](N=[N+]=[N-])[C@@H](CO)O2)c(=O)[nH]c1=O [AZT, reference compound]	0.0011 µM	1716	1.93 µM		
N=C(N)NCCC[C@H](NC(=O)[C@@H]1CSSC[C@H](NC(=O)[C@H](Cc2c[nH]c3ccccc23)NC(=O)[C@H](CCCNC(=N)N)NC(=O)[C@@H](N)CCCNC(=N)N)C(=O)N[C@@H](Cc2ccc(O)cc2)C(=O)N[C@@H](CCCNC(=N)N)C(=O)N[C@@H](CCCCN)C(=O)N[C@H]2CSSC[C@H](NC(=O)[C@H](Cc3ccc(O)cc3)NC(=O)CNC(=O)[C@H](CCCCN)NC(=O)[C@H](Cc3ccc(O)cc3)NC2=O)C(=O)N[C@@H](Cc2ccc(O)cc2)C(=O)N[C@@H](CCCNC(=N)N)C(=O)N[C@@H](CCCCN)C(=O)N1)C(N)=O [Polypeptide (1)] (HELM PEPTIDE1{R.R.W.C.Y.R.K.C.Y.K.G.Y.C.Y.R.K.C.R.[am]}$PEPTIDE1,PEPTIDE1,4:R3-17:R3|PEPTIDE1,PEPTIDE1,8:R3-13:R3$$$V2.0; bridges inferred)				0.0047 µg/mL	41.53 µg/mL
N=C(N)NCCC[C@H](NC(=O)[C@@H]1CSSC[C@H](NC(=O)[C@H](Cc2c[nH]c3ccccc23)NC(=O)[C@H](CCCNC(=N)N)NC(=O)[C@@H](N)CCCNC(=N)N)C(=O)N[C@@H](Cc2ccc(O)cc2)C(=O)N[C@@H](CCCNC(=N)N)C(=O)N[C@@H](CCCCN)C(=O)N[C@H](CCCCN)C(=O)N2CCC[C@H]2C(=O)N[C@@H](Cc2ccc(O)cc2)C(=O)N[C@@H](CCCNC(=N)N)C(=O)N[C@@H](CCCCN)C(=O)N1)C(N)=O [Polypeptide (2), Arg-Arg-Trp-Cys-Tyr-Arg-Lys----------DLys-Pro-----------Tyr-Arg-Lys-Cys-Arg-NH2] (HELM PEPTIDE1{R.R.W.C.Y.R.K.[dK].P.Y.R.K.C.R.[am]}$PEPTIDE1,PEPTIDE1,4:R3-13:R3$$$V2.0)		1565		0.029 µg/mL	44.60 µg/mL
N=C(N)NCCC[C@H](NC(=O)[C@H](CS)NC(=O)[C@H](CCCCN)NC(=O)[C@H](CCCNC(=N)N)NC(=O)[C@H](Cc1ccc(O)cc1)NC(=O)[C@H](CS)NC(=O)[C@H](Cc1ccc(O)cc1)NC(=O)CNC(=O)[C@H](CCCCN)NC(=O)[C@H](Cc1ccc(O)cc1)NC(=O)[C@H](CS)NC(=O)[C@H](CCCCN)NC(=O)[C@H](CCCNC(=N)N)NC(=O)[C@H](Cc1ccc(O)cc1)NC(=O)[C@H](CS)NC(=O)[C@H](Cc1c[nH]c2ccccc12)NC(=O)[C@H](CCCNC(=N)N)NC(=O)[C@@H](N)CCCNC(=N)N)C(N)=O [Reduced form of polypeptide (1)] (H-RRWCYRKCYKGYCYRKCR-NH2)				0.0052 µg/mL	41.27 µg/mL
N=C(N)NCCC[C@H](NC(=O)[C@H](CS)NC(=O)[C@H](CCCCN)NC(=O)[C@H](CCCNC(=N)N)NC(=O)[C@H](Cc1ccc(O)cc1)NC(=O)[C@@H]1CCCN1C(=O)[C@@H](CCCCN)NC(=O)[C@H](CCCCN)NC(=O)[C@H](CCCNC(=N)N)NC(=O)[C@H](Cc1ccc(O)cc1)NC(=O)[C@H](CS)NC(=O)[C@H](Cc1c[nH]c2ccccc12)NC(=O)[C@H](CCCNC(=N)N)NC(=O)[C@@H](N)CCCNC(=N)N)C(N)=O [Reduced form of] (HELM PEPTIDE1{R.R.W.C.Y.R.K.[dK].P.Y.R.K.C.R.[am]}$$$$V2.0)				0.040 µg/mL	41.17 µg/mL
Dextran sulfate [reference compound]				0.68 µg/mL	
